Measurements reported in paper PMC11224403, “Des-acyl ghrelin reduces alcohol intake and alcohol-induced reward in rodents” (Translational Psychiatry, 2024).

Key:
[1] = system: male mice; experiment: Locomotor activity test, alcohol-induced stimulation and DAG per se, mice; format: in vivo, NMRI mice
Source text: Male and female Rcc Han Wistar rats (8–12 weeks old at arrival; Envigo, Horst, Netherlands) were used for the alcohol drinking and locomotor activity experiments as they drink alcohol to intoxicating levels. For in vivo microdialysis studies male Wistar rats (Charles River, Calco, Italy) were used as they display robust dopamine levels in NAc shell after alcohol injection. […] All rodents were allowed to habituate to the animal facility at least one week before they entered an experiment. […] The sample sizes of each experiment were based on previous experience in which statistical significance has been detected. The person who conducted the experiments, and analyzed the collected data was aware of the treatment allocation. Only preset exclusion criteria were used when analyzing the data obtained in attempts to exclude confounding factors in analyzing data. In the alcohol drinking experiments leaking bottles and low alcohol consumption (<3.0 g/kg for males; <3.5 g/kg for females) were preset exclusion criteria. The preset exclusion criterion in the ex vivo HPLC-EC, ELISA, and recombinant cell line experiments was contamination of the sample. Misplaced probes, technical difficulties, and damages to the surgery area were preset exclusion criteria for the in vivo microdialysis experiment. Intra-cage male aggression was the preset exclusion criterion for the locomotor activity and CPP experiments. To minimize tentative confounding factors, the order of treatments was stratified, with treatments being mixed for each animal cage and for each apparatus used as well as balancing the alcohol intake between future treatment groups.
Alcohol was in the behavioral and neurochemical tests injected (intraperitoneally, IP) 5 min before the test.
Locomotor activity tests were conducted in ventilated and dim-lit (4 lux) open field arenas (420 × 420 × 200 mm; Med Associates Inc; Georgia, Vermont, USA). Infra-red beams detected distance traveled, number of jumps, vertical counts, average velocity, stereotypic counts, number of inner zone entries, and time spent in the inner/outer zones of each animal.
In the first test, after 60 min of habituation, male (n = 24) or female (n = 24) rats were injected with vehicle or DAG (0.5, 1.0, or 2.0 mg/kg). 15 min later the activity was monitored for another 60 min. In the second locomotor activity experiment, male mice (n = 32) were allowed to habituate for 60 min. After that, they were injected with vehicle or DAG (0.25, 0.5, or 1.0 mg/kg). After 15 min the activity was monitored for another 60 min.
Therefore, male mice were (n = 32) injected with DAG (1.0 mg/kg) or vehicle 15 min before alcohol or vehicle. The activity registration started 5 min later and was recorded for an additional 60 min. Identical locomotor activity experiments were conducted in new male mice (n = 32), where a lower dose of DAG (0.5 mg/kg) was combined with alcohol.
The data from drinking experiments were analyzed by unpaired t-test or repeated two-way ANOVA. A two-tailed unpaired t-test analyzed the ELISA, ex vivo HPLC-EC, and cFOS data. In addition, the Pearson test correlated the serum levels and the mean values of alcohol intake in rats. A one-way ANOVA with Bonferroni post hoc tests and unpaired t-test analyzed the locomotor activity and CPP data, respectively. The in vivo microdialysis experiments were evaluated by a repeated two-way ANOVA followed by the Bonferroni post hoc test.

[2] = system: CB1 receptor; experiment: Aquoscreen receptor activity assay, CB1; format: cell-based, human; conditions: 50 µM DAG in results (8.3 µM in methods); luminescence, triplicates
[3] = system: SERT; experiment: Transporter inhibition in recombinant cell line, SERT; format: cell-based, human; conditions: 8.3 µM DAG; recombinant cells, 3 h incubation, fluorescence dye

Substance: des-acyl ghrelin (GSSFLSPEHQRVQQRKESKKPPAKLQPR; Ghrelin-28 non-acylated; UniProt Q9UBU3 24-51, looked up) [DAG, non-octanoylated form of ghrelin; purchased from Tocris (printed Tocrise Bioscience), dissolved in 0.9% NaCl]
- alcohol-induced locomotor stimulation (effect of DAG) ([1]; DAG 0.5 mg/kg plus alcohol, n = 8 per group (vehicle-vehicle one removed)): reduced but did not block (P = 0.5319)
- alcohol-induced locomotor stimulation (effect of DAG) ([1]; DAG 1 mg/kg 15 min before alcohol 1.75 g/kg IP, n = 8 per group): prevented the alcohol-induced locomotor stimulation (P = 0.0305)
- locomotor activity, DAG per se ([1]; DAG 1 mg/kg without alcohol, n = 8 per group): did not alter the activity of the mice (P > 0.9999)
- locomotor activity, DAG per se, dose finding ([1]; DAG 0.25, 0.5 or 1.0 mg/kg, 60 min recording, n = 8 per group, data not shown): did not influence locomotor activity
- activation of CB1 [2]: no activation
- inhibition of SERT [3]: no inhibition
